Measurements as given in patent US8148391B2 (Cephalon, Inc., priority 2006, dated 2012).
Where two headings read alike, the source gives them in different places.

Assays:
[1] = biological target: T1, baculovirus-expressed ALK (Homo sapiens, UniProt Q9UM73); assay: ALK Kinase Assay (ELISA-type, time-resolved fluorescence); assay type: biochemical
T1 construct: host or cells: baculovirus expression system
Procedure, shortened: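 Plates coated with phospholipase C-γ substrate (10 μg/mL in TBS); reaction started with 30 ng/ml ALK and run 15 min at 37° C. Phosphorylated substrate detected with Eu-N1-labeled PT66 antibody. IC50 from sigmoidal variable-slope fit of percent inhibition vs log concentration.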

[2] = biological target: T2, c-Met (cytoplasmic domain) (Homo sapiens, UniProt P08581); assay: c-Met Kinase Assay (same methods as for ALK, with modifications); assay type: biochemical
T2 construct: 10 ng/mL c-Met (cytoplasmic domain, Invitrogen Corporation #PV3143); purchased Invitrogen Corporation PV3143
T2 sequence (P08581 956-1390 limits assumed): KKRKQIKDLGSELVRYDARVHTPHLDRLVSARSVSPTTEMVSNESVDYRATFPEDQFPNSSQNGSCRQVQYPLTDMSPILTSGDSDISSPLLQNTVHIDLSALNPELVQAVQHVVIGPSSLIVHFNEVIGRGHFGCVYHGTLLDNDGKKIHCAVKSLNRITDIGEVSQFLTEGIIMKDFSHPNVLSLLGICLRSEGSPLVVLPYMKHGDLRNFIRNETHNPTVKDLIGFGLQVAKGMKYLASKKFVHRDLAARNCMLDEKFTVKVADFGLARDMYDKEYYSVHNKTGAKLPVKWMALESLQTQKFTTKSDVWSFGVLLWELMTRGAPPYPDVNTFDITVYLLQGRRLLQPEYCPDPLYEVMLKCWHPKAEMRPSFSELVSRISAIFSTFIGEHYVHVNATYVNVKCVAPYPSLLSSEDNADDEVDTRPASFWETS
Procedure, shortened: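 Plates were coated with phospholipase C-γ substrate (10 μg/mL) in TBS, and the reaction was started with 10 ng/mL c-Met cytoplasmic domain and run 15 min at 37 °C. Phosphoproduct was detected with Eu-N1-labelled PT66 antibody. IC50 came from a variable-slope sigmoidal fit of percent inhibition vs log concentration.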

[3] = 1 μM ATP (Km level), read-out: ALK Activity (ALK Kinase Inhibition, IC50)
[4] = 1 μM ATP (Km level), read-out: cMet Activity (c-Met Kinase Inhibition, IC50)
[5] = ALK kinase inhibition, 1 μM ATP (Km level), read-out: ALK Activity
[6] = c-Met kinase inhibition, 1 μM ATP (Km level), read-out: cMet Activity
[7] = ALK kinase inhibition, 1 μM ATP, read-out: ALK Activity
[8] = c-Met kinase inhibition, 1 μM ATP, read-out: cMet Activity

T1 sequence (Q9UM73 19-1620): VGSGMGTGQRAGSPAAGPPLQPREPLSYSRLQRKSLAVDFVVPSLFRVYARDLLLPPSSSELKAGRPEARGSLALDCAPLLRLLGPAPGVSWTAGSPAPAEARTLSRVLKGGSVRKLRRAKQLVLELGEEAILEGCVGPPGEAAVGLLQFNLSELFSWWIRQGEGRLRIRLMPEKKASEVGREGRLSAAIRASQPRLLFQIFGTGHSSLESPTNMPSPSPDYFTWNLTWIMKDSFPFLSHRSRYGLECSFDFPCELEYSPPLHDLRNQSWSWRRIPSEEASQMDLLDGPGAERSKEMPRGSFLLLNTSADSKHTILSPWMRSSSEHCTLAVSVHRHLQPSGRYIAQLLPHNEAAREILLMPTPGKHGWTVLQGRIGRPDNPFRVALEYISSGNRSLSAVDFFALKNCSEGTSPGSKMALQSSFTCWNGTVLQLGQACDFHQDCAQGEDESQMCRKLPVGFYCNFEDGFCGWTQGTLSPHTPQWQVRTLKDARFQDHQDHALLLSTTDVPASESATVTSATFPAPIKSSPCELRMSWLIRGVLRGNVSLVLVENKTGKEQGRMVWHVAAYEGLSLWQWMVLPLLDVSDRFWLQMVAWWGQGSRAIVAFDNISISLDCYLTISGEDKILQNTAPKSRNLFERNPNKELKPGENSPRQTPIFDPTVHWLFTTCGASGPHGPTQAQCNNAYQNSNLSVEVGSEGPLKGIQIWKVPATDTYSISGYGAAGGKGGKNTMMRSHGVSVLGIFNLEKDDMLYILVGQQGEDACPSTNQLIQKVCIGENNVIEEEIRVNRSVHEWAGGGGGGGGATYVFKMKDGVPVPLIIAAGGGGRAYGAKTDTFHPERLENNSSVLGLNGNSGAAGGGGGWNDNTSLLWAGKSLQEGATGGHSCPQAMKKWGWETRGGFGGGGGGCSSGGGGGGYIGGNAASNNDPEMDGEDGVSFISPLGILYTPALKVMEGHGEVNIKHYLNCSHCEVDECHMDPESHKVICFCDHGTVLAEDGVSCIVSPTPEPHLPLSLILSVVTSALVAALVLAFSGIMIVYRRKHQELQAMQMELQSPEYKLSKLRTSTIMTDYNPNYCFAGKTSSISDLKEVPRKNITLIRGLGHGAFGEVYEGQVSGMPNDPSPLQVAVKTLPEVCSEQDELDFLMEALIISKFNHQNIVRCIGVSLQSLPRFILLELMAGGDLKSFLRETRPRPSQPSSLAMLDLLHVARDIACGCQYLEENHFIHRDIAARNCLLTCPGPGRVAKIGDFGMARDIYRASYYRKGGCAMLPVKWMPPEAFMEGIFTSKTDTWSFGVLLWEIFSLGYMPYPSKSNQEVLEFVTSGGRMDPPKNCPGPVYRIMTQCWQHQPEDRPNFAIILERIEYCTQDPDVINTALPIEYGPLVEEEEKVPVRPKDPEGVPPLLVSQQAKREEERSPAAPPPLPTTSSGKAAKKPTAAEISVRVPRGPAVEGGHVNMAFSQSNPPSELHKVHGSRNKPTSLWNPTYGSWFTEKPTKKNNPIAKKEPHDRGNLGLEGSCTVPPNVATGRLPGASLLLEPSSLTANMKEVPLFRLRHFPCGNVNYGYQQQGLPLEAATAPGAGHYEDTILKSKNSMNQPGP

SMILES | IC50 [1, 3] | IC50 [2, 4] | IC50 [1, 5] | IC50 [2, 6] | other results
COc1cc2c(cc1Nc1ncc(Cl)c(Nc3ccc(N4CCN(C)CC4)cc3OC)n1)CCN(CC(=O)N(C)C)CC2 [Example 770, 2-(7-{5-Chloro-4-[2-methoxy-4-(4-methyl-piperazin-1-yl)-phenylamino]-pyrimidin-2-ylamino}-8-methoxy-1,2,4,5-tetrahydro-benzo[d]azepin-3-yl)-N,N-dimethyl-acetamide] | < 100 nM | > 10000 nM | – | – | –
COCCN1CCc2cc(Nc3ncc(Cl)c(N[C@@H]4CCCC[C@H]4NS(C)(=O)=O)n3)c(OC)cc2CC1 [Example 111, N-((1R,2R)-2-{5-Chloro-2-[8-methoxy-3-(2-methoxy-ethyl)-2,3,4,5-tetrahydro-1H-benzo[d]azepin-7-ylamino]-pyrimidin-4-ylamino}-cyclohexyl)-methanesulfonamide] | – | – | < 100 nM | > 10000 nM | –
CNS(=O)(=O)c1ccccc1Nc1nc(Nc2ccc3c(c2)C2CCC3CN(CC#N)C2)ncc1Cl (centres unmarked) [Example 275, 2-[5-Chloro-2-(10-cyanomethyl-10-aza-tricyclo[6.3.2.0*2,7*]trideca-2,4,6-trien-4-ylamino)-pyrimidin-4-ylamino]-N-methyl-benzenesulfonamide] | – | – | < 100 nM | < 100 nM | –
CCN1CC(=O)Nc2cc(Nc3ncc(Cl)c(Nc4c(F)cccc4C(=O)NC)n3)ccc2C1 [Example 1863, 2-[5-Chloro-2-(4-ethyl-2-oxo-2,3,4,5-tetrahydro-1H-benzo[e][1,4]diazepin-8-ylamino)-pyrimidin-4-ylamino]-3-fluoro-N-methyl-benzamide] | – | – | – | – | IC50 [1, 7]: 100 to 1000 nM; IC50 [2, 8]: < 100 nM
CNC(=O)c1cccc(F)c1Nc1nc(Nc2ccc3c(c2)CCN(C[C@@H](O)C(F)(F)F)CC3)ncc1Cl [Example 332, 2-{5-Chloro-2-[3-((R)-3,3,3-trifluoro-2-hydroxy-propyl)-2,3,4,5-tetrahydro-1H-benzo[d]azepin-7-ylamino]-pyrimidin-4-ylamino}-3-fluoro-N-methyl-benzamide] | – | – | < 100 nM | < 100 nM | –
CNC(=O)c1cccc(F)c1Nc1nc(Nc2ccc3c(c2)N(C(C)C)CCCC3(C)C)ncc1Cl [Example 1626, 2-[5-Chloro-2-(1-isopropyl-5,5-dimethyl-2,3,4,5-tetrahydro-1H-benzo[b]azepin-8-ylamino)-pyrimidin-4-ylamino]-3-fluoro-N-methyl-benzamide] | – | – | – | – | IC50 [1, 7]: 100 to 1000 nM; IC50 [2, 8]: 100 to 1000 nM
CNC(=O)c1cccc(F)c1Nc1nc(Nc2ccc3c(c2)CCN(C[C@@H](OC)C(F)(F)F)CC3)ncc1Cl [Example 1361, 2-{5-Chloro-2-[3-((R)-3,3,3-trifluoro-2-methoxy-propyl)-2,3,4,5-tetrahydro-1H-benzo[d]azepin-7-ylamino]-pyrimidin-4-ylamino}-3-fluoro-N-methyl-benzamide] | – | – | – | – | IC50 ([1]; 1 μM ATP (Km level), 30 ng/ml ALK, 37° C., 15 minutes, read-out: ALK Activity (ALK kinase inhibition, IC50 class)): < 100 nM; IC50 ([2]; 1 μM ATP (Km level), 10 ng/mL c-Met, read-out: cMet Activity (c-Met kinase inhibition, IC50 class)): < 100 nM
COc1cc2c(cc1Nc1ncc(Cl)c(N[C@H]3[C@@H](C(N)=O)[C@@H]4C=C[C@H]3C4)n1)CCN(C(=O)C1COCCO1)CC2 (stereo partly drawn) [Example 635, (1S,2S,3R,4R)-3-{5-Chloro-2-[3-([1,4]dioxane-2-carbonyl)-8-methoxy-2,3,4,5-tetrahydro-1H-benzo[d]azepin-7-ylamino]-pyrimidin-4-ylamino}-bicyclo[2.2.1]hept-5-ene-2-carboxylic acid amide] | < 100 nM | > 10000 nM | – | – | –

More lines, main results first:

IC50 [1, 3] | IC50 [2, 4] | IC50 [1, 5] | IC50 [2, 6] | SMILES | other results
< 100 nM | 100 to 1000 nM | – | – | CCN1CCc2ccc(Nc3ncc(C(F)(F)F)c(Nc4ccc(N5CCOCC5)cc4OC)n3)cc2CC1 [Example 924, N(2)-(3-Ethyl-2,3,4,5-tetrahydro-1H-benzo[d]azepin-7-yl)-N(4)-(2-methoxy-4-morpholin-4-yl-phenyl)-5-trifluoromethylpyrimidine-2,4-diamine] | –
1000 to 10000 nM | 1000 to 10000 nM | – | – | Cc1ccc(-c2ccccc2Nc2nc(Nc3ccc4c(c3)CCCC(=O)N4C)ncc2Cl)nc1 [Example 1004, 7-{5-Chloro-4-[2-(5-methyl-pyridin-2-yl)-phenylamino]-pyrimidin-2-ylamino}-1-methyl-1,3,4,5-tetrahydro-benzo[b]azepin-2-one] | –
